A short description of series [1]: Stability test at 70° C. of crystals (remaining ratio of N-(3,3-dimethylbutyl)-APM). It counts as physicochemical. The method, then: The resulting G-type crystals and A-type crystals of N-(3,3-dimethylbutyl)-APM were tested at 70° C., concerning their stability. […] The relationship between the storage time and the remaining ratio of N-(3,3-dimethylbutyl)-APM in this test will be shown below in Table 1.

For series [2] the following is noted: on the weight basis, cited from earlier work.

As to `COC(=O)[C@H](Cc1ccccc1)NC(=O)[C@H](CC(=O)O)NCCC(C)(C)C` [A, N-[N-(3,3-dimethylbutyl)-L-α-aspartyl]-L-phenylalanine methyl ester], the Remaining ratio in series [1] (time elapsed 0 hrs) amounted to 95 wt. %; in series [1] (time elapsed 52 hrs), 95 wt. %; in series [1] (time elapsed 160 hrs), 94 wt. %; in series [1] (time elapsed 160 hrs, listed as A-type crystals) it was 94 wt. %.

Take `COC(=O)[C@H](Cc1ccccc1)NC(=O)[C@H](CC(=O)O)NCCC(C)(C)C` [G, N-[N-(3,3-dimethylbutyl)-L-α-aspartyl]-L-phenylalanine methyl ester, reference compound]: the Remaining ratio is 96 wt. % in series [1] (time elapsed 0 hrs); 87 wt. % in series [1] (time elapsed 52 hrs); 34 wt. % in series [1] (time elapsed 160 hrs); 34 wt. % in series [1] (time elapsed 160 hrs, listed as G-type crystals).

`COC(=O)[C@H](Cc1ccccc1)NC(=O)[C@H](CC(=O)O)NCCC(C)(C)C` [N-(3,3-dimethylbutyl)-ATM, N-[N-(3,3-dimethylbutyl)-L-α-aspartyl]-L-phenylalanine methyl ester]: the “sweetening potency relative to aspartame” value in series [2] (times that of aspartame) is listed as “at least 50 times”. The “sweetening potency relative to sucrose” value in series [2] (times that of sucrose (table sugar)) is listed as “about 10,000 times”.
